In patent publication US20240158446A1, “CYCLIC COMPOUND HAVING SELECTIVE INHIBITORY ACTION ON KRAS OVER HRAS AND NRAS” (CHUGAI SEIYAKU KABUSHIKI KAISHA, priority 2021, published 2024):
Where a SMILES comes first, the peptide text is derived from it. Bridges are numbered along the chain shown (N, C = ends). [ ]: non-standard residue; d: D form. The star is where a group is joined. hPhe(3-Cl-4-CF3) = N[C@@H](CCc1ccc(C(F)(F)F)c(Cl)c1)C(=O)O; NPrPhe(4-CF3) = CCCN[C@@H](Cc1ccc(C(F)(F)F)cc1)C(=O)O; NMeGly(cPent) = CN[C@H](C(=O)O)C1CCCC1; Pro(4,4-F2) = O=C(O)[C@@H]1CC(F)(F)CN1; Hyp = O=C(O)[C@@H]1C[C@@H](O)CN1; NMeD = CN[C@@H](CC(=O)O)C(=O)O; NMeL = CN[C@@H](CC(C)C)C(=O)O; Morpholide = C1CN(*)CCO1; NMeA = CN[C@@H](C)C(=O)O; Ac5c = NC1(C(=O)O)CCCC1; Aze = O=C(O)[C@@H]1CCN1; Ac4c = NC1(C(=O)O)CCC1; Sar = CNCC(=O)O

Legend:
[1] = target: GDP-bound NRAS wild-type protein (Homo sapiens, UniProt P01111); experiment: Binding to NRAS by surface plasmon resonance (SPR), Single Cycle Kinetics; details: SPR, GDP-bound NRAS wild-type protein vs GDP-bound KRAS wild-type protein
Sequence of GDP-bound NRAS wild-type protein (P01111 whole entry): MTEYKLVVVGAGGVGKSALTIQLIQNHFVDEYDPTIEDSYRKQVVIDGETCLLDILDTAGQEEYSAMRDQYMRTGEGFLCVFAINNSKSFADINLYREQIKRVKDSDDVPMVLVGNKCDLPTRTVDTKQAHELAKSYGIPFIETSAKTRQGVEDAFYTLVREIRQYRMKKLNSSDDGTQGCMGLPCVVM

[2] = target: GDP-bound KRAS wild-type protein (Homo sapiens, UniProt P01116); experiment: Binding to KRAS by surface plasmon resonance (SPR), Single Cycle Kinetics; details: SPR Single Cycle Kinetics, GDP-bound KRAS wild-type protein, 1:1 binding model; read-out: KRAS KD
Sequence of GDP-bound KRAS wild-type protein (P01116 whole entry): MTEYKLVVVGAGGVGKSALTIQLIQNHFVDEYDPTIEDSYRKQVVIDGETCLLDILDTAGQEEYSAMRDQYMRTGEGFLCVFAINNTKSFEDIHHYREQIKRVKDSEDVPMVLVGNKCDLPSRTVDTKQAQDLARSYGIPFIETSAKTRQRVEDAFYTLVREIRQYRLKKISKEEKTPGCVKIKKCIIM

[3] = target: GDP-bound HRAS wild-type protein (Homo sapiens, UniProt P01112); experiment: Binding to HRAS by surface plasmon resonance (SPR), Single Cycle Kinetics; details: SPR, GDP-bound HRAS wild-type protein vs GDP-bound KRAS wild-type protein
Sequence of GDP-bound HRAS wild-type protein (P01112 whole entry): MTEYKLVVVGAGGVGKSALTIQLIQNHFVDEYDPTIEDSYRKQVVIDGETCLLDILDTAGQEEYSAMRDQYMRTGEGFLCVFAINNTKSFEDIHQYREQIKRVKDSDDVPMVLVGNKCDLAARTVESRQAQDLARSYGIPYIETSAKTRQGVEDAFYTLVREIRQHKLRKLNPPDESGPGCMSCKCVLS

| Compound | NRAS/KRAS (ratio of KD value for NRAS to KD value for KRAS) [1] | Kd [2] [nM] | HRAS/KRAS (ratio of KD value for HRAS to KD value for KRAS) [3] | NRAS/KRAS (ratio of KD value with respect to NRAS to KD value with respect to KRAS) [1] | HRAS/KRAS (ratio of KD value with respect to HRAS to KD value with respect to KRAS) [3] |
| --- | --- | --- | --- | --- | --- |
| CCCN1C(=O)[C@@H]2CCN2C(=O)[C@H](C)N(C)C(=O)[C@H]([C@@H](C)CC)NC(=O)[C@H](CC(C)C)N(C)C(=O)C[C@@H](C(=O)N2CCOCC2)N(C)C(=O)[C@H](C2CCCC2)N(C)C(=O)C2(CCC2)NC(=O)[C@@H]2C[C@@H](OCC)CN2C(=O)[C@H](CCc2ccc(C(F)(F)F)c(Cl)c2)NC(=O)CN(C)C(=O)[C@@H]1Cc1ccc(C(F)(F)F)cc1 [PP0406] ([NMeL]I[NMeA][Aze][NPrPhe(4-CF3)][Sar][hPhe(3-Cl-4-CF3)][Hyp](Et)[Ac4c][NMeGly(cPent)][NMeD]-Morpholide; lactam N-11) | C (A compound having a KD ratio of 0.1 or more and less than 3 is denoted as C) | 0.042 | B (a compound having 3 or more and less than 10 is denoted as B) | – | – |
| CCCN1C(=O)[C@@H]2CCN2C(=O)CN(C)C(=O)[C@H]([C@@H](C)CC)NC(=O)[C@H](CC(C)C)N(C)C(=O)C[C@@H](C(=O)N2CCOCC2)N(C)C(=O)[C@H](C2CCCC2)N(C)C(=O)C2(CCCC2)NC(=O)[C@@H]2CC(F)(F)CN2C(=O)[C@H](CCc2ccc(C(F)(F)F)c(Cl)c2)NC(=O)CN(C)C(=O)[C@@H]1Cc1ccc(C(F)(F)F)cc1 [PP0408] ([NMeL]I[Sar][Aze][NPrPhe(4-CF3)][Sar][hPhe(3-Cl-4-CF3)][Pro(4,4-F2)][Ac5c][NMeGly(cPent)][NMeD]-Morpholide; lactam N-11) | C (A compound having a KD ratio of 0.1 or more and less than 3 is denoted as C) | 0.094 | B (a compound having 3 or more and less than 10 is denoted as B) | – | – |
| CCCN1C(=O)[C@@H]2CCN2C(=O)CN(C)C(=O)[C@H]([C@@H](C)CC)NC(=O)[C@H](CC(C)C)N(C)C(=O)C[C@@H](C(=O)N2CCOCC2)N(C)C(=O)[C@H](C2CCCC2)N(C)C(=O)C2(CCC2)NC(=O)[C@@H]2CC(F)(F)CN2C(=O)[C@H](CCc2ccc(C(F)(F)F)c(Cl)c2)NC(=O)CN(C)C(=O)[C@@H]1Cc1ccc(C(F)(F)F)cc1 [PP0409] ([NMeL]I[Sar][Aze][NPrPhe(4-CF3)][Sar][hPhe(3-Cl-4-CF3)][Pro(4,4-F2)][Ac4c][NMeGly(cPent)][NMeD]-Morpholide; lactam N-11) | – | 0.056 | – | C (A compound having a KD ratio of 0.1 or more and less than 3 is denoted as C) | C (A compound having a KD ratio of 0.1 or more and less than 3 is denoted as C) |
| CCCN1C(=O)[C@@H]2CCN2C(=O)CN(C)C(=O)[C@H]([C@@H](C)CC)NC(=O)[C@H](CC(C)C)N(C)C(=O)C[C@@H](C(=O)N2CCOCC2)N(C)C(=O)[C@H](C2CCCC2)N(C)C(=O)C2(CCCC2)NC(=O)[C@@H]2C[C@@H](OCC)CN2C(=O)[C@H](CCc2ccc(C(F)(F)F)c(Cl)c2)NC(=O)CN(C)C(=O)[C@@H]1Cc1ccc(C(F)(F)F)cc1 [PP0410] ([NMeL]I[Sar][Aze][NPrPhe(4-CF3)][Sar][hPhe(3-Cl-4-CF3)][Hyp](Et)[Ac5c][NMeGly(cPent)][NMeD]-Morpholide; lactam N-11) | – | 0.058 | – | C (A compound having a KD ratio of 0.1 or more and less than 3 is denoted as C) | B (a compound having 3 or more and less than 10 is denoted as B) |
| CCCN1C(=O)[C@@H]2CCN2C(=O)CN(C)C(=O)[C@H]([C@@H](C)CC)NC(=O)[C@H](CC(C)C)N(C)C(=O)C[C@@H](C(=O)N2CCOCC2)N(C)C(=O)[C@H](C2CCCC2)N(C)C(=O)C2(CCC2)NC(=O)[C@@H]2C[C@@H](OCC)CN2C(=O)[C@H](CCc2ccc(C(F)(F)F)c(Cl)c2)NC(=O)CN(C)C(=O)[C@@H]1Cc1ccc(C(F)(F)F)cc1 [PP0411] ([NMeL]I[Sar][Aze][NPrPhe(4-CF3)][Sar][hPhe(3-Cl-4-CF3)][Hyp](Et)[Ac4c][NMeGly(cPent)][NMeD]-Morpholide; lactam N-11) | – | 0.046 | – | C (A compound having a KD ratio of 0.1 or more and less than 3 is denoted as C) | C (A compound having a KD ratio of 0.1 or more and less than 3 is denoted as C) |
| CCCN1C(=O)CN(C)C(=O)CN(C)C(=O)[C@H]([C@@H](C)CC)NC(=O)[C@H](CC(C)C)N(C)C(=O)C[C@@H](C(=O)N(C)C)N(C)C(=O)[C@H](C2CCCC2)N(C)C(=O)C2(CCC2)NC(=O)[C@@H]2CCCN2C(=O)[C@H](CCc2ccc(C(F)(F)F)c(Cl)c2)NC(=O)CN(C)C(=O)[C@@H]1Cc1ccc(C(F)(F)F)cc1 [PP0412] ([NMeL]I[Sar][Sar][NPrPhe(4-CF3)][Sar][hPhe(3-Cl-4-CF3)]P[Ac4c][NMeGly(cPent)][NMeD]-NMe2; lactam N-11) | – | 0.043 | – | B (a compound having 3 or more and less than 10 is denoted as B) | C (A compound having a KD ratio of 0.1 or more and less than 3 is denoted as C) |
